# Patent US11512090B2, “Muscarinic acetylcholine M1 receptor antagonists” (PIPELINE THERAPEUTICS, INC., priority 2018, dated 2022)
# pIC50: −log10 of the molar value. Where two headings read alike, the source gives them in different places.
# Tests used:
# Type in all cases: cell-based
# [1] = target: T1, human M1 receptor (Homo sapiens, UniProt P11229); experiment: In vitro functional assay of muscarinic acetylcholine receptor activity (aequorin calcium flux, antagonist mode vs EC80 acetylcholine), M1
# T1 sequence (P11229 1-460): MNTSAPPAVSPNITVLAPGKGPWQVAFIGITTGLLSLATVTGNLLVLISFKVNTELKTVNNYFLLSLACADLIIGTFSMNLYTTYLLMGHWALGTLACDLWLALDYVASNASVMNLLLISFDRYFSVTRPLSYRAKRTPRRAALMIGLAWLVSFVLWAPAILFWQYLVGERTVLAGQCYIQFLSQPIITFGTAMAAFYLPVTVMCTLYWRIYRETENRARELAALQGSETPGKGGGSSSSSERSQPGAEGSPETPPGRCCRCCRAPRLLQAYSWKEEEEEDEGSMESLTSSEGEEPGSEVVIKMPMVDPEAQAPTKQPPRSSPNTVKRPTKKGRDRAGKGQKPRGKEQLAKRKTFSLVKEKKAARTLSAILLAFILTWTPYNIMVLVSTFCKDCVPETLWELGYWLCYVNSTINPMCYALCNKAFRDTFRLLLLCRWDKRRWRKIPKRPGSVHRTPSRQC
# How it was run: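 CHO-K1 cells stably co-expressing human M1 and aequorin were loaded with 5 uM coelenterazine h for 4 h at room temperature in the dark. IC50 came from the drop in luminescence.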
# [2] = target: T2, M2 (Homo sapiens, UniProt P08172); experiment: In vitro functional assay of muscarinic acetylcholine receptor activity, M2
# T2 sequence (P08172 1-466): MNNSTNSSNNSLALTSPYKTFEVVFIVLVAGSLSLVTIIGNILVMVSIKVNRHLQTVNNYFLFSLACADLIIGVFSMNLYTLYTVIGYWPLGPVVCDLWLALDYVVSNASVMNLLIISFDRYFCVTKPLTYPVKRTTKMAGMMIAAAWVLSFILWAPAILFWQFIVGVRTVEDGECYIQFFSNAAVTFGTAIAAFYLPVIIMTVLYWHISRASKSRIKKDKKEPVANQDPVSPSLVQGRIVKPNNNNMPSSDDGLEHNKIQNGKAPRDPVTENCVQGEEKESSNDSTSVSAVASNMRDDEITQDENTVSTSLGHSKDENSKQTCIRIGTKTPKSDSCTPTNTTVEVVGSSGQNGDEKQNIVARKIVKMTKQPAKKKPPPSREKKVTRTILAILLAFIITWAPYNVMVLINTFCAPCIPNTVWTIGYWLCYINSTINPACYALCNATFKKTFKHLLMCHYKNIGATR
# [3] = target: M3 (Homo sapiens, UniProt P20309); experiment: In vitro functional assay of muscarinic acetylcholine receptor activity, M3; conditions: antagonist IC50 at M3; read-out: M3 IC50
# [4] = antagonist IC50 at M2, read-out: M2 IC50
# [5] = CHO-K1 cells stably expressing human M1 receptor with Aequorin, decrease in EC80 acetylcholine response, read-out: M1 IC50
# Chain of M3 (P20309 whole entry): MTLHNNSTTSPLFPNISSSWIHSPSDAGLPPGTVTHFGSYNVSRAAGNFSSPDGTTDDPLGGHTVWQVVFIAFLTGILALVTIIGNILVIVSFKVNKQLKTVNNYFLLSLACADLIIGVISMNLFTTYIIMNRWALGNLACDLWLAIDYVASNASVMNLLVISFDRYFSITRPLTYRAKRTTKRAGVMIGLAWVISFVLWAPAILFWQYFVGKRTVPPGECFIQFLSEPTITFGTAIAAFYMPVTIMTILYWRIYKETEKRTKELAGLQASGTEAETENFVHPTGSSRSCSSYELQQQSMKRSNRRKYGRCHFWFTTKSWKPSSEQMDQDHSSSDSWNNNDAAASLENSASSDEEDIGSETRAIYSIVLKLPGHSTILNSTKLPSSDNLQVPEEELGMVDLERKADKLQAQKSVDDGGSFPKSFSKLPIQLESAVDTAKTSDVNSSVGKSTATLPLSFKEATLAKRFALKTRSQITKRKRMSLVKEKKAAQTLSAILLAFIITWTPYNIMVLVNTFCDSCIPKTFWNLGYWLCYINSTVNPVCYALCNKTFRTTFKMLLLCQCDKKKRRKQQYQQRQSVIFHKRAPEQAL
SMILES,pIC50 [1],"pIC50 [2, 4]",pIC50 [3],"pIC50 [1, 5]",pIC50 [2]
"Cc1ccc2ncnn2c1CNCCC(=O)N1CC2CCC(C1)N2c1ccc(C#N)cn1 [Example 173, 6-(3-{3-[({6-methyl-[1,2,4]triazolo[1,5-a]pyridin-5-yl}methyl)amino]propanoyl}-3,8-diazabicyclo[3.2.1]octan-8-yl)pyridine-3-carbonitrile]",6.00 to 7.00,< 5.00,< 5.00,,
"N#Cc1ccc(N2C3CCC2CN(C(=O)CCN(Cc2cccc4ncnn24)C2COC2)C3)nc1 [Example 174, 6-(3-{3-[(oxetan-3-yl)({[1,2,4]triazolo[1,5-a]pyridin-5-yl}methyl)amino]propanoyl}-3,8-diazabicyclo[3.2.1]octan-8-yl)pyridine-3-carbonitrile]",6.00 to 7.00,< 5.00,< 5.00,,
"N#Cc1ccc(-c2ccc(N3C4CCC3CN(C(=O)CCNCc3cccc5ncnn35)C4)cc2)nc1 [Example 175, 6-[4-(3-{3-[({[1,2,4]triazolo[1,5-a]pyridin-5-yl}methyl)amino]propanoyl}-3,8-diazabicyclo[3.2.1]octan-8-yl)phenyl]pyridine-3-carbonitrile]",6.00 to 7.00,5.00 to 6.00,< 5.00,,
"Cc1ccc(COCCC(=O)N2CC3CCC(C2)N3c2ccc(C#N)cn2)c2cccnc12 [Example 176, 6-(3-{3-[(8-methylquinolin-5-yl)methoxy]propanoyl}-3,8-diazabicyclo[3.2.1]octan-8-yl)pyridine-3-carbonitrile]",6.00 to 7.00,5.00 to 6.00,< 5.00,,
"Cc1ccc2ncccc2c1COCCC(=O)N1CC2CCC(C1)N2c1ccc(C#N)cn1 [Example 177, 6-(3-{3-[(6-methylquinolin-5-yl)methoxy]propanoyl}-3,8-diazabicyclo[3.2.1]octan-8-yl)pyridine-3-carbonitrile]",> 7.00,5.00 to 6.00,5.00 to 6.00,,
"COc1cnc2cccc(CNCCC(=O)N3CC4CCC(C3)N4c3ccc(Cl)cn3)c2c1 [Example 178, 1-[8-(5-chloropyridin-2-yl)-3,8-diazabicyclo[3.2.1]octan-3-yl]-3-{[(3-methoxyquinolin-5-yl)methyl]amino}propan-1-one]",6.00 to 7.00,< 5.00,< 5.00,,
"O=C(COCCc1cccn2ncnc12)N1CC2CCC(C1)N2c1ccc(Cl)cn1 [Example 179, 1-[8-(5-chloropyridin-2-yl)-3,8-diazabicyclo[3.2.1]octan-3-yl]-2-(2-{[1,2,4]triazolo[1,5-a]pyridin-8-yl}ethoxy)ethan-1-one]",> 7.00,< 5.00,< 5.00,,
"N#Cc1ccc(N2C3CCC2CN(C(=O)COCCc2cccn4ncnc24)C3)nc1 [Example 180, 6-{3-[2-(2-{[1,2,4]triazolo[1,5-a]pyridin-8-yl}ethoxy)acetyl]-3,8-diazabicyclo[3.2.1]octan-8-yl}pyridine-3-carbonitrile]",> 7.00,5.00 to 6.00,< 5.00,,
"COc1cnc2cccc(CCOCC(=O)N3CC4CCC(C3)N4c3ccc(C#N)cn3)c2c1 [Example 181, 6-(3-{2-[2-(3-methoxyquinolin-5-yl)ethoxy]acetyl}-3,8-diazabicyclo[3.2.1]octan-8-yl)pyridine-3-carbonitrile]",> 7.00,5.00 to 6.00,5.00 to 6.00,,
"N#Cc1ccc(N2C3CCC2CN(C(=O)COCc2cccc4ncnn24)C3)nc1 [Example 182, 6-{3-[2-({[1,2,4]triazolo[1,5-a]pyridin-5-yl}methoxy)acetyl]-3,8-diazabicyclo[3.2.1]octan-8-yl}pyridine-3-carbonitrile]",,< 5.00,< 5.00,5.00 to 6.00,
"N#Cc1ccc(N2C3CCC2CN(C(=O)COCCc2cccc4ncnn24)C3)nc1 [Example 183, 6-{3-[2-(2-{[1,2,4]triazolo[1,5-a]pyridin-5-yl}ethoxy)acetyl]-3,8-diazabicyclo[3.2.1]octan-8-yl}pyridine-3-carbonitrile]",> 7.00,< 5.00,5.00 to 6.00,,
"N#Cc1ccc(N2C3CCC2CN(C(=O)COCc2cccn4ncnc24)C3)nc1 [Example 184, 6-{3-[2-({[1,2,4]triazolo[1,5-a]pyridin-8-yl}methoxy)acetyl]-3,8-diazabicyclo[3.2.1]octan-8-yl}pyridine-3-carbonitrile]",> 7.00,< 5.00,< 5.00,,
"N#Cc1ccc(N2C3CCC2CN(C(=O)CCOCc2cccc4nccn24)C3)nc1 [Example 186, 6-{3-[3-({imidazo[1,2-a]pyridin-5-yl}methoxy)propanoyl]-3,8-diazabicyclo[3.2.1]octan-8-yl}pyridine-3-carbonitrile]",> 7.00,< 5.00,5.00 to 6.00,,
"N#Cc1ccc(N2C3CCC2CN(C(=O)CCOCc2cccc4c2OCO4)C3)nc1 [Example 187, 6-(3-{3-[(2H-1,3-benzodioxol-4-yl)methoxy]propanoyl}-3,8-diazabicyclo[3.2.1]octan-8-yl)pyridine-3-carbonitrile]",6.00 to 7.00,< 5.00,< 5.00,,
"N#Cc1ccc(N2C3CCC2CN(C(=O)CCOCc2cccc4ncc(C(F)(F)F)n24)C3)nc1 [Example 188, 6-[3-(3-{[3-(trifluoromethyl)imidazo[1,2-a]pyridin-5-yl)methoxy}propanoyl)-3,8-diazabicyclo[3.2.1]octan-8-yl)pyridine-3-carbonitrile]",,5.00 to 6.00,< 5.00,5.00 to 6.00,
"O=C(CCNCc1cccc2ncnn12)N1CC2CCC(C1)N2c1ccc(-c2ccccc2)cn1 [Example 193, 1-[8-(5-phenylpyridin-2-yl)-3,8-diazabicyclo[3.2.1]octan-3-yl]-3-[({[1,2,4]triazolo[1,5-a]pyridin-5-yl}methyl)amino]propan-1-one]",,< 5.00,5.00 to 6.00,5.00 to 6.00,
"N#Cc1ccc(N2C3CCC2CN(C(=O)C2CC(=Cc4cccc5ncccc45)C2)C3)nc1 (stereo not drawn) [Example 194, 6-(3-{3-[(quinolin-5-yl)methylidene]cyclobutanecarbonyl}-3,8-diazabicyclo[3.2.1]octan-8-yl)pyridine-3-carbonitrile]",> 7.00,,5.00 to 6.00,,6.00 to 7.00
"N#Cc1ccc(N2C3CCC2CN(C(=O)C2CC(=Cc4cccc5cnccc45)C2)C3)nc1 (stereo not drawn) [Example 195, 6-(3-{3-[(isoquinolin-5-yl)methylidene]cyclobutanecarbonyl}-3,8-diazabicyclo[3.2.1]octan-8-yl)pyridine-3-carbonitrile]",,5.00 to 6.00,5.00 to 6.00,5.00 to 6.00,
"N#Cc1ccc(N2C3CCC2CN(C(=O)[C@H]2C[C@H](Oc4cccc5ncsc45)C2)C3)nc1 [Example 197, 6-{3-[(1r,3r)-3-(1,3-benzothiazol-7-yloxy)cyclobutanecarbonyl]-3,8-diazabicyclo[3.2.1]octan-8-yl}pyridine-3-carbonitrile]",6.00 to 7.00,< 5.00,< 5.00,,
